Values quoted from earlier work, collected in US20130102635A1, “Methods for Treating Disorders Associated with Hyperlipidemia in a Mammal” (priority 2005, published 2013).
“Also recorded” adds a separate entry of the source. Read-outs that look alike come from different tables or passages of the source.

What was measured:
[1] = animal model for homozygous FH, for example at 25 mg/day
[2] = clinical studies, 80 mg/day or greater

Structure (SMILES) | adverse events (patients, 25 mg/day BMS-201038) | reduction of plasma cholesterol levels [1] | adverse events (clinical studies, implitapide 80 mg/day or greater) | adverse events (implitapide 80 mg/day and 160 mg/day) | therapeutic effectiveness [2]
O=C(NC1CCN(CCCCC2(C(=O)NCC(F)(F)F)c3ccccc3-c3ccccc32)CC1)c1ccccc1-c1ccc(C(F)(F)F)cc1 [BMS-201038, N-(2,2,2-Trifluorethyl)-9-[4-[4-[[[4′-(trifluoromethyl)[1,1′biphenyl]-2-Yl]carbonyl]amino]-1-piperidinyl]butyl] 9H-fluorene-9-carboxamide] | gastrointestinal disturbances, abnormalities in liver function, and hepatic steatosis; also recorded: gastrointestinal disorders, abnormalities in liver function and/or hepatic steatosis | effectively reduced plasma cholesterol levels in a dose dependent manner |  |  | 
Cc1cc(C)c2c3ccccc3n(Cc3ccc([C@@H](C(=O)N[C@H](CO)c4ccccc4)C4CCCC4)cc3)c2n1 [implitapide, (2S)-2-cyclopentyl-2-[4-[(2,4-dimethyl-9H-pyrido[2,3-b]indol-9-yl)methyl]phenyl]-N-[(1S)-2-hydroxy-1-phenylethyl]ethanamide] |  |  | gastrointestinal disturbances, abnormalities in liver function, and hepatic steatosis | gastrointestinal disorders, abnormalities in liver function and/or hepatic steatosis | therapeutically effective
